Source: publication PMC3433420 (PLoS ONE, 2012)
Residues, ends and D or L forms follow the SMILES beside them.

What was measured:
LCP2 SH2 domain = LCP2 SH2 domain (Homo sapiens, UniProt Q13094); assay: FP saturation binding assay
SH2 and PTB domains [1] = target: T1, SH2 and PTB domains (Homo sapiens, UniProt O14796); assay: In-house protein microarrays (with or without 5 mM DTT), protein named per line; format: binding; conditions: protein SH2D1B
T1 construct: thioredoxin; made in house; host or cells: BL21(DE3)pLysS E. coli
T1 sequence (O14796 1-132): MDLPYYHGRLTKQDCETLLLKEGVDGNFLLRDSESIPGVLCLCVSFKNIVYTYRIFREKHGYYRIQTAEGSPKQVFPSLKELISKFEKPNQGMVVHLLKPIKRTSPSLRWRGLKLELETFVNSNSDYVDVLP
Method in brief: (§1)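 KD values come from rhodamine fluorescence of duplicate spots after subtraction of a thioredoxin control. Domains were printed at ~40 µM on aldehyde slides, blocked 1 h at room temperature in pH 7.8 HEPES/KCl buffer with 5 mM DTT and 1% BSA, then peptide-probed.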

SH2 and PTB domains [2] = target: T2, SH2 and PTB domains (Homo sapiens, UniProt O75159); assay: as above; format: binding; conditions: protein SOCS5; PM assay replicate # 39337; array fabrication # 39329
T2 construct: thioredoxin; made in house; host or cells: BL21(DE3)pLysS E. coli
Method in brief: as §1

SH2 and PTB domains [3] = target: T3, SH2 and PTB domains (Homo sapiens, UniProt O75815); assay: as above; format: binding; conditions: protein BCAR3; PM assay replicate # 39337; array fabrication # 39329
T3 construct: thioredoxin; made in house; host or cells: BL21(DE3)pLysS E. coli
Method in brief: as §1

SH2 and PTB domains [4] = target: T4, SH2 and PTB domains (Homo sapiens, UniProt P06239); assay: as above; format: binding; conditions: protein LCK
T4 construct: thioredoxin; made in house; host or cells: BL21(DE3)pLysS E. coli
T4 sequence (P06239 whole entry, the tested form may be a part): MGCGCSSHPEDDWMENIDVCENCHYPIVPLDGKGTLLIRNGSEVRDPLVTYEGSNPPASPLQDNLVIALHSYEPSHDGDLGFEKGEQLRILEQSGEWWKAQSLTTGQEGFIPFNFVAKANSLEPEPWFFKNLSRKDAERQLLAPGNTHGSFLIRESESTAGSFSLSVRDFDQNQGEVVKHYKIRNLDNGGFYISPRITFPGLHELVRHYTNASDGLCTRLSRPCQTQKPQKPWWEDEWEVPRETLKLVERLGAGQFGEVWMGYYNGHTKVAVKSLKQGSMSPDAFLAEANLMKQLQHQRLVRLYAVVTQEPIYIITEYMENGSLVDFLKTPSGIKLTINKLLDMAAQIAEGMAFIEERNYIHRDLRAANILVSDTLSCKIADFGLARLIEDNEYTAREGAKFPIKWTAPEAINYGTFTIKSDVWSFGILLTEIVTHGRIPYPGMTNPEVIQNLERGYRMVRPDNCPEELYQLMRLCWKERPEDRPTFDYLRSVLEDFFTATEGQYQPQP
Method in brief: as §1

SH2 and PTB domains [5] = target: T5, SH2 and PTB domains (Homo sapiens, UniProt P15498); assay: as above; format: binding; conditions: protein VAV1, array fabrication # 39329
T5 construct: thioredoxin; made in house; host or cells: BL21(DE3)pLysS E. coli
T5 sequence (P15498 whole entry, the tested form may be a part): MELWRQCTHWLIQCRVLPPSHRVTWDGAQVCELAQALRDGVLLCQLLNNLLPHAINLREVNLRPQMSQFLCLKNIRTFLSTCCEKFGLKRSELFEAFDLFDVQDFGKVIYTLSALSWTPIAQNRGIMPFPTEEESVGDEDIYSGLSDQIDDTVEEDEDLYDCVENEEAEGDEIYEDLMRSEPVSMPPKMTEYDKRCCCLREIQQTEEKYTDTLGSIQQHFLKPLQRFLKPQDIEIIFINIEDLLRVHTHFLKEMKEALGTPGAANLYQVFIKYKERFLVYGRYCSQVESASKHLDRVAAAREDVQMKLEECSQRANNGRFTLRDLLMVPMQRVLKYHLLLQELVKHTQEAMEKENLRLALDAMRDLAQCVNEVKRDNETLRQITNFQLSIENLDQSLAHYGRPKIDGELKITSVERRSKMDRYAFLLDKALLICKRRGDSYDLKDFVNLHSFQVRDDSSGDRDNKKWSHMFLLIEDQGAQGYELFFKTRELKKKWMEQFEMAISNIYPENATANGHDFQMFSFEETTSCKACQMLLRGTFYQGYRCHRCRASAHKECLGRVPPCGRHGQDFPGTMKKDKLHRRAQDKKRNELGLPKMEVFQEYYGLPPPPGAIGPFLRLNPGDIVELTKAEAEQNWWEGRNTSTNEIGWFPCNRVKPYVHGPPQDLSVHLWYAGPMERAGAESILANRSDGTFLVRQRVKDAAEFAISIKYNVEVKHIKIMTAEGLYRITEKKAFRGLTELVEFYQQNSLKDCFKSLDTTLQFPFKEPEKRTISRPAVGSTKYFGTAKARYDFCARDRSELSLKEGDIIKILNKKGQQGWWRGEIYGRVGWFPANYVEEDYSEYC
Method in brief: as §1

SH2 and PTB domains [6] = target: T6, SH2 and PTB domains (Homo sapiens, UniProt Q06124); assay: as above; format: binding; conditions: protein PTPN11-NC, array fabrication # 39329
T6 construct: thioredoxin; made in house; host or cells: BL21(DE3)pLysS E. coli
T6 sequence (Q06124 whole entry, the tested form may be a part): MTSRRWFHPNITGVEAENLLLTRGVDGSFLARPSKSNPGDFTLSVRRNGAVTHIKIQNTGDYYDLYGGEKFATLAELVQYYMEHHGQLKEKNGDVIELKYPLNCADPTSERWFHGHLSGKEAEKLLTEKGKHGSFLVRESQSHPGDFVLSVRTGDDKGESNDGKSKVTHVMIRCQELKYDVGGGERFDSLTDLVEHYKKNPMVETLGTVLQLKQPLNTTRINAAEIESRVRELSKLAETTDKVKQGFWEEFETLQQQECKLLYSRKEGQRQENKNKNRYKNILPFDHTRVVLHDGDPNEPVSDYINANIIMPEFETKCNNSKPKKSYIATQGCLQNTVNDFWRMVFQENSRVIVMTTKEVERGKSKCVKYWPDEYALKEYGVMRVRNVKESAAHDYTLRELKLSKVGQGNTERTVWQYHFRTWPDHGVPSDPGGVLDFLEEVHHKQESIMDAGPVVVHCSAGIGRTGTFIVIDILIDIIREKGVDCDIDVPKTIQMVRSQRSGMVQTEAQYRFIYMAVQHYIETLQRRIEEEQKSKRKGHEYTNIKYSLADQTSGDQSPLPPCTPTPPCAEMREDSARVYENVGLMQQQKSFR
Method in brief: as §1

SH2 and PTB domains [7] = target: T7, SH2 and PTB domains (Homo sapiens, UniProt Q63HR2); assay: as above; format: binding; conditions: protein TENC1, array fabrication # 39329
T7 construct: thioredoxin; made in house; host or cells: BL21(DE3)pLysS E. coli
T7 sequence (Q63HR2 whole entry, the tested form may be a part): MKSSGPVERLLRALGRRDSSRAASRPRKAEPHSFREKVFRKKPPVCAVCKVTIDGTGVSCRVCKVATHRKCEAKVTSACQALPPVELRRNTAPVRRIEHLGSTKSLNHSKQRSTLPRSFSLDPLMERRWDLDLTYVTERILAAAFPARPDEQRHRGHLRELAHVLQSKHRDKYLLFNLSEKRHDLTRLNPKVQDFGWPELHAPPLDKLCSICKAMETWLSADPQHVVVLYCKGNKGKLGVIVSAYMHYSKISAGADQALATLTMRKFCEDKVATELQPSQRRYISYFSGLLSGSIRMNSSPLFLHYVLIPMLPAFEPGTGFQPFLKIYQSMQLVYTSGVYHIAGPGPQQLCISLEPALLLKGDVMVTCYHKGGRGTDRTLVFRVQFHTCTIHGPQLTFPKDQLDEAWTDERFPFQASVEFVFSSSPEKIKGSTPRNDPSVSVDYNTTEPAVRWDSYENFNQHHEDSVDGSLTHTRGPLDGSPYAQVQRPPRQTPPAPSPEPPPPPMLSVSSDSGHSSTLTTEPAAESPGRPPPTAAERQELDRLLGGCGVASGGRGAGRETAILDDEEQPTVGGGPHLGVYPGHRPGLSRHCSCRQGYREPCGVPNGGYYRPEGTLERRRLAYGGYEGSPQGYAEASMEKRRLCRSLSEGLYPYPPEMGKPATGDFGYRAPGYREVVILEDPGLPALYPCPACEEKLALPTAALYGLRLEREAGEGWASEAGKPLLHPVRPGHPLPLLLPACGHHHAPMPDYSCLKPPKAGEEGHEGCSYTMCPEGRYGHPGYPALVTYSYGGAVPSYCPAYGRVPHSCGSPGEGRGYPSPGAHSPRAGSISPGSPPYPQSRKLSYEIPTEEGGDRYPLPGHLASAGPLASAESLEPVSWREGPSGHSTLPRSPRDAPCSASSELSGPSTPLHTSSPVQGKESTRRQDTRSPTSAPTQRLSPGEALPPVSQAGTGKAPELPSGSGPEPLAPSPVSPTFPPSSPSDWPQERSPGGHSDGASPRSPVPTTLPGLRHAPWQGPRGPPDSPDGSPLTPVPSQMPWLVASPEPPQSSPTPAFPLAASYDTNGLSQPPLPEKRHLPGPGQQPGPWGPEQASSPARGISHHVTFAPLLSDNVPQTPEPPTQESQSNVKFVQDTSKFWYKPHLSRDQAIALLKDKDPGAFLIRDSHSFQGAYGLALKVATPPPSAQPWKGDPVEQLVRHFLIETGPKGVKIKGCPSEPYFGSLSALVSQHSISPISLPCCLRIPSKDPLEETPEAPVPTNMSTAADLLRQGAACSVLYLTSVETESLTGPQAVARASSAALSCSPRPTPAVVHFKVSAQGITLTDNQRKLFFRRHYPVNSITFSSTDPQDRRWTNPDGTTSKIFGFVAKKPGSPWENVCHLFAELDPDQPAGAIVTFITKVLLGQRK
Method in brief: as §1

SH2 and PTB domains [8] = target: T8, SH2 and PTB domains (Homo sapiens, UniProt Q8N5H7); assay: as above; format: binding; conditions: protein SH2D3C, array fabrication # 39329
T8 construct: thioredoxin; made in house; host or cells: BL21(DE3)pLysS E. coli
T8 sequence (Q8N5H7 whole entry, the tested form may be a part): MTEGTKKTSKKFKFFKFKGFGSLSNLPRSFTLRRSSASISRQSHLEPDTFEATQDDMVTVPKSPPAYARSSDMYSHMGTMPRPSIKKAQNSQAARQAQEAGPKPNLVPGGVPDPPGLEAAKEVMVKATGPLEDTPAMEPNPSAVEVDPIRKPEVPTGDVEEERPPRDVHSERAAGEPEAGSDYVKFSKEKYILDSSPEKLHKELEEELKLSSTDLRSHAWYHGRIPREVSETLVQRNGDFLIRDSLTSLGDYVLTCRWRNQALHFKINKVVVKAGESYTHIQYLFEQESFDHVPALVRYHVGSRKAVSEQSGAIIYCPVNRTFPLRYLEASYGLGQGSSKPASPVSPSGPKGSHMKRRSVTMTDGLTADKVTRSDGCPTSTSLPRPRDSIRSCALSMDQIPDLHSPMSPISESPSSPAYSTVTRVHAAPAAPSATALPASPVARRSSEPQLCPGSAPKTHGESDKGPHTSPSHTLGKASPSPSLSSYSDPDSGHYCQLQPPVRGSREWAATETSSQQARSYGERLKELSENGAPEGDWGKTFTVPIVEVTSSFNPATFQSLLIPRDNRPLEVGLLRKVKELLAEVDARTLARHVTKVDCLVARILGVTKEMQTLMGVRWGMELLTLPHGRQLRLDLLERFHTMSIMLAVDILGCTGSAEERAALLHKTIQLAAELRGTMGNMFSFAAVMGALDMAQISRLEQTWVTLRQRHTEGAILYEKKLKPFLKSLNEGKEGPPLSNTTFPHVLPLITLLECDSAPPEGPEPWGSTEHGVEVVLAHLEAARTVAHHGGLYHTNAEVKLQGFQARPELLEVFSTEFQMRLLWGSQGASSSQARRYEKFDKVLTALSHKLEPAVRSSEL
Method in brief: as §1

SH2D1B SH2 domain = target: T9, SH2D1B SH2 domain (Homo sapiens, UniProt O14796); assay: FP saturation binding assay
T9 sequence (O14796 5-101 limits assumed): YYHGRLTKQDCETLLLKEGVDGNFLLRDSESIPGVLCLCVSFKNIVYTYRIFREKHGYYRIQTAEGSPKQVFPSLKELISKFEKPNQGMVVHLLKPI

SH2 and PTB domains [9] = target: T10, SH2 and PTB domains (Homo sapiens, UniProt P46108); assay: In-house protein microarrays (with or without 5 mM DTT), protein named per line; format: binding; conditions: protein CRK; PM assay replicate # 39307; array fabrication # 39286
T10 construct: thioredoxin; made in house; host or cells: BL21(DE3)pLysS E. coli
Method in brief: as §1

SH2 and PTB domains [10] = target: T11, SH2 and PTB domains (Homo sapiens, UniProt Q13322); assay: as above; format: binding; conditions: protein GRB10; PM assay replicate # 39307; array fabrication # 39286
T11 construct: thioredoxin; made in house; host or cells: BL21(DE3)pLysS E. coli
Method in brief: as §1

SH2 and PTB domains [11] = target: T12, SH2 and PTB domains (Homo sapiens, UniProt Q8IZW8); assay: as above; format: binding; conditions: protein TNS4; PM assay replicate # 39307; array fabrication # 39286
T12 construct: thioredoxin; made in house; host or cells: BL21(DE3)pLysS E. coli
Method in brief: as §1

SH2 and PTB domains [12] = target: T13, SH2 and PTB domains (Homo sapiens, UniProt Q8WV28); assay: as above; format: binding; conditions: protein BLNK; PM assay replicate # 39307; array fabrication # 39286
T13 construct: thioredoxin; made in house; host or cells: BL21(DE3)pLysS E. coli
T13 sequence (Q8WV28 whole entry, the tested form may be a part): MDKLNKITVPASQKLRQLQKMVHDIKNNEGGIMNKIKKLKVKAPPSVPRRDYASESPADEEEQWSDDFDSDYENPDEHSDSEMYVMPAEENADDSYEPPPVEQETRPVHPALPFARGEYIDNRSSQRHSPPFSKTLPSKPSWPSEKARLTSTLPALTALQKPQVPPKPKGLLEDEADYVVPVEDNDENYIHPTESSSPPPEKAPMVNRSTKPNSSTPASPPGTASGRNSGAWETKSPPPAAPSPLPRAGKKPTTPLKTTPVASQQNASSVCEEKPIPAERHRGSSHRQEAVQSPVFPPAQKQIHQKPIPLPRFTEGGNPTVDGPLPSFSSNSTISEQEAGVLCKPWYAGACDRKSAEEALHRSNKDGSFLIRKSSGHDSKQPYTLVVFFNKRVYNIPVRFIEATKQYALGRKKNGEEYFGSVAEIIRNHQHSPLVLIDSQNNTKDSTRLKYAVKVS
Method in brief: as §1

[13] = PM assay replicate # 39336, array fabrication # 39329
[14] = PM assay replicate # 39603, array fabrication # 39392

Chain of LCP2 SH2 domain (Q13094 422-530 limits assumed): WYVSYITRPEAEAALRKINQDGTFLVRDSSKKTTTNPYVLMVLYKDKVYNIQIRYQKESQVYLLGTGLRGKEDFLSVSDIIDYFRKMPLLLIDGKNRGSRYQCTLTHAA

Structure (SMILES): CC(C)C[C@H](NC(=O)[C@H](CC(N)=O)NC(=O)[C@@H](N)CC(=O)O)C(=O)N[C@@H](Cc1ccc(O)cc1)C(=O)N[C@@H](Cc1ccc(OP(=O)(O)O)cc1)C(=O)N[C@@H](Cc1c[nH]c2ccccc12)C(=O)N[C@@H](CC(=O)O)C(=O)N[C@@H](CCC(N)=O)C(=O)N[C@@H](CC(=O)O)C(=O)N1CCC[C@H]1C(=O)N1CCC[C@H]1C(=O)N[C@@H](CCC(=O)O)C(=O)N[C@@H](CC(=O)O)C(=O)O [ErbB2 1222 13-mer] (HELM PEPTIDE1{D.N.L.Y.[O=C([C@H](Cc1ccc(OP(=O)(O)O)cc1)N[*:1])[*:2]].W.D.Q.D.P.P.E.D}$$$$V2.0)
- Kd (LCP2 SH2 domain): 11700 nM

Structure (SMILES): CC(C)C[C@H](NC(=O)[C@@H]1CCCN1)C(=O)N[C@@H](CCC(N)=O)C(=O)N[C@@H](CCCNC(=N)N)C(=O)N[C@@H](Cc1ccc(OP(=O)(O)O)cc1)C(=O)N[C@@H](CO)C(=O)N[C@@H](CCC(=O)O)C(=O)N[C@@H](CC(=O)O)C(=O)N1CCC[C@H]1C(=O)N[C@H](C(=O)N[C@H](C(=O)N1CCC[C@H]1C(=O)N[C@@H](CC(=O)O)C(=O)O)C(C)C)[C@@H](C)O [ErbB2 pY1112] (HELM PEPTIDE1{P.L.Q.R.[O=C([C@H](Cc1ccc(OP(=O)(O)O)cc1)N[*:1])[*:2]].S.E.D.P.T.V.P.D}$$$$V2.0)
- Kd (SH2 and PTB domains [1]; PM assay replicate # 39331, array fabrication # 39329): 2030 nM
- Kd (SH2 and PTB domains [1]; [13]): 5390 nM
- Kd (SH2 and PTB domains [1]; [14]): 490 nM

Structure (SMILES): CC(C)C[C@H](NC(=O)[C@@H]1CCCN1C(=O)[C@H](C)NC(=O)[C@@H](NC(=O)[C@H](Cc1ccc(OP(=O)(O)O)cc1)NC(=O)CNC(=O)[C@H](CC(=O)O)NC(=O)[C@@H](NC(=O)[C@@H](N)CCC(=O)O)[C@@H](C)O)C(C)C)C(=O)N[C@H](C(=O)N[C@@H](CS)C(=O)N[C@@H](CO)C(=O)N[C@@H](CC(=O)O)C(=O)O)[C@@H](C)O [ErbB2 pY1127]
- Kd (SH2 and PTB domains [2]): 700 nM
- Kd (SH2 and PTB domains [3]): 730 nM
- Kd (SH2 and PTB domains [4]; [13]): 800 nM
- Kd (SH2 and PTB domains [4]; PM assay replicate # 39337, array fabrication # 39329): 1610 nM
- Kd (SH2 and PTB domains [4]; [14]): 130 nM
- Kd (SH2 and PTB domains [5]; PM assay replicate # 39336): 190 nM
- Kd (SH2 and PTB domains [5]; PM assay replicate # 39337): 90 nM
- Kd (SH2 and PTB domains [6]; PM assay replicate # 39336): 1530 nM
- Kd (SH2 and PTB domains [6]; PM assay replicate # 39337): 1150 nM
- Kd (SH2 and PTB domains [7]; PM assay replicate # 39336): 32590 nM
- Kd (SH2 and PTB domains [7]; PM assay replicate # 39337): 3940 nM
- Kd (SH2 and PTB domains [8]; PM assay replicate # 39336): 1520 nM
- Kd (SH2 and PTB domains [8]; PM assay replicate # 39337): 5510 nM

Structure (SMILES): CSCC[C@H](NC(=O)[C@H](Cc1ccc(OP(=O)(O)O)cc1)NC(=O)[C@H](CCC(=O)O)NC(=O)[C@H](Cc1ccc(O)cc1)NC(=O)CNC(=O)[C@@H](N)CC(C)C)C(=O)N[C@@H](CC(=O)O)C(=O)N[C@H](C(=O)NCC(=O)N[C@@H](CO)C(=O)N[C@@H](CC(=O)O)C(=O)N[C@@H](CC(C)C)C(=O)N[C@@H](CC(=O)O)C(=O)O)C(C)C [ErbB3 1224 13-mer] (HELM PEPTIDE1{L.G.Y.E.[O=C([C@H](Cc1ccc(OP(=O)(O)O)cc1)N[*:1])[*:2]].M.D.V.G.S.D.L.D}$$$$V2.0)
- Kd (SH2D1B SH2 domain): 1470 nM

Structure (SMILES): CC[C@H](C)[C@H](NC(=O)[C@H](CC(N)=O)NC(=O)[C@H](CC(N)=O)NC(=O)[C@H](CCCCN)NC(=O)[C@H](CC(C)C)NC(=O)[C@H](Cc1ccc(OP(=O)(O)O)cc1)NC(=O)[C@H](CCC(=O)O)NC(=O)[C@H](C)NC(=O)[C@H](CCCCN)NC(=O)CNC(=O)[C@H](CC(C)C)NC(=O)[C@@H](NC(=O)[C@H](CC(N)=O)NC(=O)[C@H](C)NC(=O)[C@@H](N)Cc1ccccc1)[C@@H](C)O)C(=O)N[C@@H](CC(C)C)C(=O)N[C@@H](CO)C(=O)N[C@@H](CC(=O)O)C(=O)O [ErbB4 pY1221 (18-mer)] (HELM PEPTIDE1{F.A.N.T.L.G.K.A.E.[O=C([C@H](Cc1ccc(OP(=O)(O)O)cc1)N[*:1])[*:2]].L.K.N.N.I.L.S.D}$$$$V2.0)
- Kd (SH2 and PTB domains [9]): 64540 nM
- Kd (SH2 and PTB domains [10]): 230 nM
- Kd (SH2 and PTB domains [11]): 320 nM
- Kd (SH2 and PTB domains [12]): 4000 nM
